Assay results reported in US11780852B2, “Methods for treating Crohn's disease using 3-((1R,3s,5S)-3-((7-((5-methyl-1H-pyrazol-3-yl)amino)-1,6-naphthyridin-5-yl)amino)-8-azabicyclo[3.2.1]octan-8-yl)propanenitrile” (priority 2015, dated 2023).
Like-named read-outs stand apart in the source and are kept apart here.

What was measured:
[1] = target: JAK1 (Homo sapiens (Human), UniProt P23458); assay type: biochemical
Procedure: (§1) Assay 1: Biochemical JAK and Off-Target Kinase Assays
(§2) A panel of four LanthaScreen JAK biochemical assays (JAK1, 2, 3 and Tyk2) were carried in a common kinase reaction buffer (50 mM HEPES, pH 7.5, 0.01% Brij-35, 10 mM MgCl2, and 1 mM EGTA). Recombinant GST-tagged JAK enzymes and a GFP-tagged STAT1 peptide substrate were obtained from Life Technologies.
(§3) Serially diluted compounds were pre-incubated with each of the four JAK enzymes and the substrate in white 384-well microplates (Corning) at ambient temperature for 1 h. ATP was subsequently added to initiate the kinase reactions in 10 μL total volume, with 1% DMSO. […] Kinase reactions were allowed to proceed for 1 hour at ambient temperature before a 10 μL preparation of EDTA (10 mM final concentration) and Tb-anti-pSTAT1 (pTyr701) antibody (Life Technologies, 2 nM final concentration) in TR-FRET dilution buffer (Life Technologies) was added. The plates were allowed to incubate at ambient temperature for 1 h before being read on the EnVision reader (Perkin Elmer).
(§4) Results were expressed as pIC50 (negative logarithm of IC50) and subsequently converted to pKi (negative logarithm of dissociation constant, Ki) using the Cheng-Prusoff equation.

[2] = target: JAK2 (Homo sapiens (Human), UniProt O60674); assay type: biochemical
Procedure: as §1, §2, §3, §4

[3] = target: TYK2 (Homo sapiens (Human), UniProt P29597); assay type: biochemical
Procedure: as §1, §2, §3, §4

[4] = system: IL-13 induced STAT6 phosphorylation in BEAS-2B human lung epithelial cells
[5] = system: IL-4 induced STAT6 phosphorylation in THP-1 human monocytic cells
[6] = system: oxazolone-induced colitis; assay: Mouse model of oxazolone-induced colitis; assay type: in vivo, BALB/C mice; details: PO, 1, 3, and/or 10 mg/kg BID (doses up to 10 mg/kg BID)
Procedure: Assay 7: Mouse Model of Oxazalone-Induced Colitis
Oxazolone-induced colitis is an experimental model that has a histological resemblance to human ulcerative colitis (Heller et al. Immunology, 2002, 17, 629-638). Adult BALB/C mice from Harlan were used in the assay. On day 1, animals were lightly anesthetized with isoflurane and the hairs between the shoulder were carefully removed before oxazolone (4%, 150 μL, 4:1 acetone:olive oil formulation) or vehicle solution was slowly applied for skin sensitization. Seven days after skin sensitization, the mice were fasted overnight, anesthetized with isoflurane inhalation, and a 1 mL syringe equipped with a 3.5-F catheter, filled with oxazolone solution, was inserted carefully about 4 cm into the colon of the mouse. Following insertion, 50 μL of the oxazolone solution (1%, 1:1 ethanol:water formulation) was injected very slowly (over 30 sec using an injection pump) into the colon. The catheter was removed and the mice were held vertically (head down) for 2 min to ensure that the entire oxazolone solution remained inside the colon. Drug treatment (PO, BID or TID) or vehicle was initiated a day prior to the oxazolone intrarectal (IR) challenge. Two-day post oxazolone intrarectal challenge, the Disease Activity Index (DAI) was assessed by treatment-blinded experimenters for each mouse according to the criteria score: stool consistency score (0, normal; 2, loose; 4, diarrhea), gross bleeding score (0, absence; 2, blood tinged; 4, presence), and weight loss score (0, none; 1, 1%-5%; 2, 5%-10^%; 3, 10%-20%; 4, more than 20%); DAI=average of (stool consistency score+gross bleeding score+weight loss score).
Selected compounds of the invention were tested in the assay. Efficacy in the model is evidenced by a decrease in DAI score as compared with the score from vehicle treated animals.

[7] = Determination of absorption in cannulated rats; assay type: in vivo, Sprague Dawley rats; details: rat, oral dose
Procedure: Drug levels were determined using an LC-MS-MS method. The resulting drug levels were used to compute the IV pharmacokinetic parameters: AUC IV and Dose IV. (2) Rats that have been cannulated in their portal vein (PV) and also in their jugular vein (JV) were dosed orally with test compound. Following oral dosing, plasma samples were typically collected from 0-6 hr from both the portal vein and the jugular vein. Drug levels were determined using an LC-MS-MS method. The resulting drug levels were used to compute the following pharmacokinetic parameters: AUC PO PV, AUC PO JV, and Dose PO. Using data derived from the above studies, the oral bioavailability F %, and the quantities Fa % and Fh % were calculated from the following formulas: F %=(AUC PO JV/AUC IV)*(Dose IV/Dose PO)*100 Fa %=(AUC PO PV/AUC IV)*(Dose IV/Dose PO)*100 Fh %=AUC PO JV/AUC PO PV where: AUC PO JV=Area under the curve following oral dose and plasma collected from the jugular vein AUC PO PV=Area under the curve following oral dose and plasma collected from the portal vein AUC IV=Area under the curve following an intravenous dose Dose IV=Intravenous Dose in mg/kg Dose PO=Oral Dose in mg/kg

[8] = 5% to 90% relative humidity, room temperature; listed as Crystalline 3-(1R,3s,5S)-3-((7-((5-methyl-H-pyrazol-3-yl)amino)-1,6-naphthyridi))
Procedure: A weighed sample was used and the humidity was lowest possible value (close to 0% RH) at the start of the analysis. The DMS analysis consisted of an initial drying step (0% RH) for 120 minutes, followed by two cycles of sorption and desorption with a scan rate of 5% RH/step over the humidity range of 5% RH to 90% RH. The DMS run was performed isothermally at 25° C.

[9] = system: splenic NK, B and T cells; assay: Immunosuppression effects in mouse splenic natural killer (NK) cells; assay type: in vivo, Balb/C mice; details: mouse, PO BID three days
Procedure: Assay 8: Immunosuppression Effects in Mouse Splenic Natural Killer (NK) Cells Depletion of mouse splenic cells is an experimental model of immunosuppression (Kudlacz et al., Am. J. of Transplantation, 2004, 4, 51-57). […] Adult male Balb/C mice (12-14 weeks of age) from Harlan were used for the study. […] Spleens were harvested 1 or 2 h post last dose and crushed immediately for cell subtype staining. Prior to fixation, fluorophore-labelled antibodies for CD19 (FITC; B cells), CD3e (PE; pan T cells) and DX5 (APC; NK cells) were incubated with splenocyte samples from each animal to allow for simultaneous, multiple subtype % analysis on the flow cytometer. The number of total spleen cells for each animal was measured by Scepter™ 2.0 Handheld Automated Cell Counter. The absolute number of lymphocyte subtype population (e.g., splenic B, T and NK cells) was calculated from the percentage of each subtype times total spleen cells for each animal. A one way ANOVA, with Dunnett's post hoc test, was used to compare the splenic lymphocytes number of the vehicle and test compound groups. The a level was set at p<0.05. Data were presented as the mean±SEM for each group.

[10] = BEAS-2B cells, IL-13 induced STAT6 phosphorylation
[11] = THP-1 cells, IL-4 induced STAT6 phosphorylation

TYK2, sequence (P29597 whole entry): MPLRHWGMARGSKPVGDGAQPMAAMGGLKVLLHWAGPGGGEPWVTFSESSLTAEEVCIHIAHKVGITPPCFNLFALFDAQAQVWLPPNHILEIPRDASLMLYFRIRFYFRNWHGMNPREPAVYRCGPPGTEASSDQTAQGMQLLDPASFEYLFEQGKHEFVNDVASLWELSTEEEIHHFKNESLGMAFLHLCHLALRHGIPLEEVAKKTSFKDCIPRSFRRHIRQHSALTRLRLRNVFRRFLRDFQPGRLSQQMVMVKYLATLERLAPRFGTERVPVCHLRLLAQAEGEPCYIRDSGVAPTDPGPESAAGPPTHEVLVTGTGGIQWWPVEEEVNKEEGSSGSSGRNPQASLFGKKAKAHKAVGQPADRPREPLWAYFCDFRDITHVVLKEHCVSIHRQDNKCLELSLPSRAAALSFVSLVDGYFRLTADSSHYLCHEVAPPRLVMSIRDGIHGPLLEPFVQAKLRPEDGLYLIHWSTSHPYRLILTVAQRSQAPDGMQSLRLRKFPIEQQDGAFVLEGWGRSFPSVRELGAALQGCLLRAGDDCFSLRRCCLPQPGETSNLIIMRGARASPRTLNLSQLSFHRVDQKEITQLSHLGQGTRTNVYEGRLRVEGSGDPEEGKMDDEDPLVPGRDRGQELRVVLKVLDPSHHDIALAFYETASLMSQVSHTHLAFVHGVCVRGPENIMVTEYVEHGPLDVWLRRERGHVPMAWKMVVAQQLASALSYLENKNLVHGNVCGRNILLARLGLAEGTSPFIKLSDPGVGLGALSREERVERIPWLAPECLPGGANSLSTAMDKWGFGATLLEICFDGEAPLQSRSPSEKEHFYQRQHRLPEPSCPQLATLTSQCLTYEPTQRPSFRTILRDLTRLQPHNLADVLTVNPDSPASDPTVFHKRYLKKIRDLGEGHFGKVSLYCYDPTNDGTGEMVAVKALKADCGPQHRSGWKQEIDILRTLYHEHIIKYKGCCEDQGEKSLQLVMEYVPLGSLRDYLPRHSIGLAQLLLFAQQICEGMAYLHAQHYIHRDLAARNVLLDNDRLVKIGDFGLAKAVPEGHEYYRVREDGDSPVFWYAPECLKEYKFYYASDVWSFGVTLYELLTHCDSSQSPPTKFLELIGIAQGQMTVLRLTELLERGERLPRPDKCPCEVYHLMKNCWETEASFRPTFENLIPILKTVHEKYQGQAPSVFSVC
JAK1, sequence (P23458 whole entry): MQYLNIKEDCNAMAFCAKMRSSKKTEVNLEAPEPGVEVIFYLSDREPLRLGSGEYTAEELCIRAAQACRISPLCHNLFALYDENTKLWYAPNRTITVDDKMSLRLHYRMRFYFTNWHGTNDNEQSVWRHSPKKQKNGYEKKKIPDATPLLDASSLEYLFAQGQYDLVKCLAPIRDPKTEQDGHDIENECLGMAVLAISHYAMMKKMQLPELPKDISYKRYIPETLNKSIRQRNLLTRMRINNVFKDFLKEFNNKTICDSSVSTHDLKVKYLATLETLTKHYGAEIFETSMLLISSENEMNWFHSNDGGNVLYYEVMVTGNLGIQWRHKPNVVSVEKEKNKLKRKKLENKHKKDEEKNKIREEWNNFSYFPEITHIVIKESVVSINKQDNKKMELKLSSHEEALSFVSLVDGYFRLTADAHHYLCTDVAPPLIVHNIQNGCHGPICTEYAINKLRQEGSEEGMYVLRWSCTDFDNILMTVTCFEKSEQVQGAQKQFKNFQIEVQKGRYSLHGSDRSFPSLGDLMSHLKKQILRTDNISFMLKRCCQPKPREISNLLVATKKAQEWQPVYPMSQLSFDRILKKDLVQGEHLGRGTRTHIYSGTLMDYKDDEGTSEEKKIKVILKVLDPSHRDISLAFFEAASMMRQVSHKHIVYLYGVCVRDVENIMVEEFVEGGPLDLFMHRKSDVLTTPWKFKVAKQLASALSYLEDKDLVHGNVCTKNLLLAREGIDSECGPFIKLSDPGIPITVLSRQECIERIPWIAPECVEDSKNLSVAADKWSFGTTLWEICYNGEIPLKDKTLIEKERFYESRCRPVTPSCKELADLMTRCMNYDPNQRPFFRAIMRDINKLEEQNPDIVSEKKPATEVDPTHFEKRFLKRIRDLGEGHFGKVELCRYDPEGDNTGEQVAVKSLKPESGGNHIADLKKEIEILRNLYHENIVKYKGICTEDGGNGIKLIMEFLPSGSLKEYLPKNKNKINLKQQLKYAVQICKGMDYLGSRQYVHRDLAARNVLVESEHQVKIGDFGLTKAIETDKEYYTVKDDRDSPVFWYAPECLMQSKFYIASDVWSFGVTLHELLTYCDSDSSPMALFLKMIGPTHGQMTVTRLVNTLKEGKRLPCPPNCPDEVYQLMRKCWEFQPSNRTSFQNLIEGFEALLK
JAK2, sequence (O60674 whole entry): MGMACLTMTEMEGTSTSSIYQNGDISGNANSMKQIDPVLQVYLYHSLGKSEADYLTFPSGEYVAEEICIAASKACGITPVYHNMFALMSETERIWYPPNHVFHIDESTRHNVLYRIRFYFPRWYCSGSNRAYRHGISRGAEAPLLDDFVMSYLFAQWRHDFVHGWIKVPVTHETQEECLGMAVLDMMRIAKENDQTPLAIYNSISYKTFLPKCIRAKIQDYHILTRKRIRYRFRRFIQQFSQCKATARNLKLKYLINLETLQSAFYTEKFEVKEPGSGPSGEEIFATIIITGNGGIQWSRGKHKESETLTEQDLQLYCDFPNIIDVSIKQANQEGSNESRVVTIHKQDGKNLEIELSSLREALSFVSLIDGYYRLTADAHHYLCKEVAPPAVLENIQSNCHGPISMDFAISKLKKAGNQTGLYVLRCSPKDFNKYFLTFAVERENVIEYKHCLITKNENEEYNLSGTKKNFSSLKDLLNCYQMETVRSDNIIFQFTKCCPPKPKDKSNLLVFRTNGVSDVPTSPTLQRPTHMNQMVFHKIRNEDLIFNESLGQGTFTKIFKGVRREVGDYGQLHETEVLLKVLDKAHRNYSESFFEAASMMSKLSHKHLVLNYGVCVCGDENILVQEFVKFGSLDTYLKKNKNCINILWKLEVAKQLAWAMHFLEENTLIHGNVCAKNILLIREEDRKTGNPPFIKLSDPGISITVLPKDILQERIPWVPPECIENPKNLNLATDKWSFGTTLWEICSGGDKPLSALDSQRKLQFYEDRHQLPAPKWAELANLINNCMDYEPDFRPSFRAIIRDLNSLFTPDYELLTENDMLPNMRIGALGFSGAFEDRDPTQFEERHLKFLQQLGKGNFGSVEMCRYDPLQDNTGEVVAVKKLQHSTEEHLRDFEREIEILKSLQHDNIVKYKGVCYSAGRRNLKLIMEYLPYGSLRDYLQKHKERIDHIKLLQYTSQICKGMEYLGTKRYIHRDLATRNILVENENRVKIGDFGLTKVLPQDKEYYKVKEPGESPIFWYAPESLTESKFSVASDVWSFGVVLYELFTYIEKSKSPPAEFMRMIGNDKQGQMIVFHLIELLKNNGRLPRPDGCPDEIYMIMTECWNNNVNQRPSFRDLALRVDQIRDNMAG

Cc1cc(Nc2cc3ncccc3c(N[C@@H]3C[C@H]4CC[C@@H](C3)N4CC(F)(F)F)n2)n[nH]1 [Example 1-14]
JAK 1 (pKi) [1]: B (B represents a pKi value between 9 and 10 (Ki between 1 nM and 0.1 nM))
JAK 2 (pKi) [2]: B (B represents a pKi value between 9 and 10 (Ki between 1 nM and 0.1 nM))
Tyk 2 (pKi) [3]: B (B represents a pKi value between 9 and 10 (Ki between 1 nM and 0.1 nM))
BEAS2B pIC50 [4, 10]: A (A represents a pEC50 value ≥7.5 (EC50≤32 nM))
THP-1 IL4 pIC50 [5, 11]: A (A represents a pEC50 value ≥7.5 (EC50≤32 nM))

Cc1cc(Nc2cc3ncccc3c(N[C@@H]3C[C@H]4CC[C@@H](C3)N4Cc3cccc(O)c3)n2)n[nH]1 [Example 1-19]
Tyk 2 (pKi) [3]: C (C represents a pKi value between 7 and 9 (Ki between 100 nM and 1 nM))
THP-1 IL4 pIC50 [5, 11]: B (B represents a pEC50 value between 6.7 and 7.5 (EC50 between 200 nM and 32 nM))

Cc1cc(Nc2cc3ncccc3c(N[C@@H]3C[C@H]4CC[C@@H](C3)N4CC3(C#N)CC3)n2)n[nH]1 [Example 1-24]
BEAS2B pIC50 [4, 10]: A (A represents a pEC50 value ≥7.5 (EC50≤32 nM))
THP-1 IL4 pIC50 [5, 11]: B (B represents a pEC50 value between 6.7 and 7.5 (EC50 between 200 nM and 32 nM))

Cc1cc(Nc2cc3ncccc3c(N[C@@H]3C[C@H]4CCC[C@@H](C3)N4CC(F)(F)F)n2)n[nH]1 [Example 1-45]
JAK 1 (pKi) [1]: B (B represents a pKi value between 9 and 10 (Ki between 1 nM and 0.1 nM))
JAK 2 (pKi) [2]: B (B represents a pKi value between 9 and 10 (Ki between 1 nM and 0.1 nM))
Tyk 2 (pKi) [3]: B (B represents a pKi value between 9 and 10 (Ki between 1 nM and 0.1 nM))

CCC(=O)N1[C@@H]2CC[C@H]1C[C@H](Nc1nc(Nc3cc(C)[nH]n3)cc3ncccc13)C2 [Example 2-1]
DAI score as compared with vehicle treated animals [6]: did not exhibit a statistically significant decrease
BEAS2B pIC50 [4, 10]: B (B represents a pEC50 value between 6.7 and 7.5 (EC50 between 200 nM and 32 nM))
THP-1 IL4 pIC50 [5, 11]: B (B represents a pEC50 value between 6.7 and 7.5 (EC50 between 200 nM and 32 nM))

Cc1cc(Nc2cc3ncccc3c(N[C@@H]3C[C@H]4CC[C@@H](C3)N4C(=O)C3(C)CCCC3)n2)n[nH]1 [Example 2-10]
JAK 1 (pKi) [1]: B (B represents a pKi value between 9 and 10 (Ki between 1 nM and 0.1 nM))
THP-1 IL4 pIC50 [5]: B (key: A represents a pEC50 value ≥7.5 (EC50≤32 nM); B represents a pEC50 value between 6.7 and 7.5 (EC50 between 200 nM and 32 nM); C represents a pEC50 value <6.7 (EC50>200 nM))

Cc1cc(Nc2cc3ncccc3c(N[C@@H]3C[C@H]4CC[C@@H](C3)N4C(=O)c3cccnc3)n2)n[nH]1 [Example 2-14]
JAK 1 (pKi) [1]: B (B represents a pKi value between 9 and 10 (Ki between 1 nM and 0.1 nM))
THP-1 IL4 pIC50 [5]: C (key: A represents a pEC50 value ≥7.5 (EC50≤32 nM); B represents a pEC50 value between 6.7 and 7.5 (EC50 between 200 nM and 32 nM); C represents a pEC50 value <6.7 (EC50>200 nM))

COC(=O)C1(C(=O)N2[C@@H]3CCC[C@H]2C[C@H](Nc2nc(Nc4cc(C)[nH]n4)cc4ncccc24)C3)CC1 [Example 2-21]
JAK 1 (pKi) [1]: B (B represents a pKi value between 9 and 10 (Ki between 1 nM and 0.1 nM))

Cc1cc(Nc2cc3ncccc3c(N[C@@H]3C[C@H]4CCC[C@@H](C3)N4C(=O)C3(C)CCCC3)n2)n[nH]1 [Example 2-23]
JAK 1 (pKi) [1]: B (B represents a pKi value between 9 and 10 (Ki between 1 nM and 0.1 nM))

CCC1(S(=O)(=O)N2[C@@H]3CCC[C@H]2C[C@H](Nc2nc(Nc4cc(C)[nH]n4)cc4ncccc24)C3)CC1 [Example 4-20]
BEAS2B pIC50 [4]: A (key: A represents a pEC50 value ≥7.5 (EC50≤32 nM); B represents a pEC50 value between 6.7 and 7.5 (EC50 between 200 nM and 32 nM); C represents a pEC50 value <6.7 (EC50>200 nM))

CCS(=O)(=O)N1[C@@H]2CC[C@H]1C[C@H](Nc1nc(Nc3cc(C)[nH]n3)cc3nc(CN4CCOCC4)ccc13)C2 [Example 5-16]
BEAS2B pIC50 [4, 10]: B (B represents a pEC50 value between 6.7 and 7.5 (EC50 between 200 nM and 32 nM))
THP-1 IL4 pIC50 [5, 11]: B (B represents a pEC50 value between 6.7 and 7.5 (EC50 between 200 nM and 32 nM))

Cc1cc(Nc2cc3ncccc3c(N[C@@H]3C[C@H]4CCC[C@@H](C3)N4S(=O)(=O)c3cccnc3)n2)n[nH]1 [Example 8, N^7-(5-methyl-1H-pyrazol-3-yl)-N-((1R,3s,5S)-9-(pyridin-3-ylsulfonyl)-9-azabicyclo[3.3.1]nonan-3-yl)-1,6-naphthyridine-5,7-diamine]
absorption at the portal vein (Fa %) [7]: less than 10%
DAI score as compared with vehicle treated animals [6]: statistically significant decrease

Cc1cc(Nc2cc3nc(CO)ccc3c(N[C@@H]3C[C@H]4CC[C@@H](C3)N4C(=O)OCC(C)C)n2)n[nH]1 [Example 12, Isobutyl (1R,3s,5S)-3-((2-(hydroxymethyl)-7-((5-methyl-1H-pyrazol-3-yl)amino)-1,6-naphthyridin-5-yl)amino)-8-azabicyclo[3.2.1]octane-8-carboxylate]
absorption at the portal vein (Fa %) [7]: less than 10%
DAI score as compared with vehicle treated animals [6]: statistically significant decrease

Cc1cc(Nc2cc3ncccc3c(N[C@@H]3C[C@H]4CC[C@@H](C3)N4CCC#N)n2)n[nH]1 [Form I, 3-((1R,3s,5S)-3-((7-((5-methyl-1H-pyrazol-3-yl)amino)-1,6-naphthyridin-5-yl)amino)-8-azabicyclo[3.2.1]octan-8-yl)propanenitrile]
weight gain / weight change (moisture sorption) [8]: less than 0.15%

C[C@@H]1CCN(C(=O)CC#N)C[C@@H]1N(C)c1ncnc2[nH]ccc12 [tofacitinib, reference compound]
B and T cell populations (spleen) [9]: No treatment effect
